Source: patent US6407099B1, “Arylpiperidinopropanol and arylpiperazinopropanol derivatives and pharmaceuticals containing the same” (Suntory Limited, priority 1997, dated 2002)

Experiments:
Sodium channel = assay: Inhibitory effect of veratrizine-induced sodium channel activity (synaptozome membrane potential, Rhodamine 6G); format: biochemical, Wistar rats; conditions: compound 0.1 μM; rat brain synaptozomes, veratrizine-induced depolarization
Excerpt: Inhibitory Effect of Veratrizine-induced Sodium Channel Activity

T-type Ca^2+ channel = assay: T-type calcium channel inhibitory effect (whole-cell patch clamp, hippocampal CA1 pyramidal cells); format: cell-based, Wistar rats; conditions: rat hippocampal CA1 pyramidal cells; peak current after 1 minute of application
Procedure: T-Type Calcium Channel Inhibitory Effect
The hippocampal CA1 pyramidal cells were isolated from Wistar rats (female, 1 week old) in according to the method reported by Takahashi et al. [K. Takahashi et al.; J. Pharmacol. Exp. Ther., 256, 169 (1991)] and the T-type calcium current was measured under conditions of a fixed membrane potential using the whole-cell configuration of the patch clamp technique. The effects of the compounds were evaluated from the rate of suppression of the peak current after 1 minute of application using the concentration clamp method.

lipid peroxidation = assay: Lipid peroxidation suppressing effect (brain membrane preparation, malonaldehyde and 4-hydroxyalkenals); format: biochemical, Wistar rats; conditions: rat brain membrane preparation, 37° C., 30 minutes
Procedure: Lipid Peroxidation Suppressing Effect
The whole brains of Wistar rats (10 weeks old, male) were excised and homogenized in the 10 times volumes of 50 mM phosphate-buffered solution (pH=7.4) (hereinafter referred to as PBS). The centrifuged supernatent was further diluted fourfold and the result was used as the brain membrane preparation. The membrane preparation was incubated in the presence of vehicle (0.5% DMSO) or compound at 37° C. for 30 minutes and an automatic oxidation reaction promoted. The reaction was stopped by 35% perchloric acid, then the total of the main decomposition products of the peroxidized lipids present in the centrifuged supernatent, that is, malonaldehyde and 4-hydroxyalkenals, was measured using a BIOXYTECH®/LPO-586™ peroxidized lipid colorimetric assay kit (OXIS International, Inc.) and used as an indicator of the lipid peroxidation.

Dopamine D2 receptor = molecular target: T1, Dopamine D2 receptor (Rattus norvegicus, UniProt P61169); assay: Dopamine D2 receptor blocking action ([^3H] raclopride, striatum membrane fraction); format: binding, Wistar male rats; conditions: 1.0 nM [^3H] raclopride, 25° C., 1 hour
T1 construct: membrane fraction prepared from the striatum of Wistar male rats; from tissue; host or cells: rat striatum membrane fraction
T1 sequence (P61169 whole entry): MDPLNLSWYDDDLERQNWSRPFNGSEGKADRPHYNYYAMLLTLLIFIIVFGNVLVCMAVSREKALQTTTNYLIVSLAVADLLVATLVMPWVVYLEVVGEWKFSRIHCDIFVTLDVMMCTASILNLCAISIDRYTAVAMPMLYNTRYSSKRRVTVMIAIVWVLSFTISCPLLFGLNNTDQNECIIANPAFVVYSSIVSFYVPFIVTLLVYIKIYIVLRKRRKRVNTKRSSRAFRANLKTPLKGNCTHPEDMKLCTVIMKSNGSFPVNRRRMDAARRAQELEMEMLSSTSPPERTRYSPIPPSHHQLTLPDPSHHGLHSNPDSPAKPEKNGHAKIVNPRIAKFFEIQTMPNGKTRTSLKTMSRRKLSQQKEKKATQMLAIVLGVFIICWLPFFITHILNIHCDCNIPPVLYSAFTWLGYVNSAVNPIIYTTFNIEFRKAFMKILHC
Procedure: Dopamine D2 Receptor Blocking Action
57 μl of the membrane fraction prepared from the striatum of Wistar male rats (6 weeks old) was incubated together with the compound and 1.0 nM [^3H] raclopride in a buffer at 25° C. for 1 hour. A GF/C glass filter (0.1% polyethylene imine treatment) was used for B/F separation. A beta plate was used for measurement of the radioactivity to evaluate the effect of the compound.

DBA/2N type mice = assay: Audiogenic seizure suppressing effect; format: in vivo; conditions: Mus musculus, ip, 20 min, compound 10 mg/kg, i.p.; audio stimulus after 20 minutes; seizure score; read-out: Antiseizure effect (suppression rate %)
Procedure: Audiogenic Seizure Suppressing Effect
The audiogenic seizure suppressing effect of the compounds was evaluated by the method of Sarro et al. [G. B. De Sarro et al., Br. J. Pharmacol., 93, 247 (1988)]. That is, the compound dissolved in 10% 2-hydroxypropyl-β-cyclodextrin was administered intraperitoneally to DBA/2N type mice (male, 3 weeks old). After 20 minutes, a supersonic washer was used to apply audio stimulus of at least 90 dB for 1 minute. The wild running (WR), clonic seizures (clonus), tonic seizures (tonus), and the respiratory arrest (RA) were observed. The seizure suppressing effect was evaluated from the rate of suppression of the average value of the seizure score found as 0=no response, 1=WR, 2=clonus, 3=tonus, and 4=RA.

Acute toxicity test = conditions: male, mouse, in vivo, iv, ddY mice, death rate up to 24 hours after administration
Procedure: A pharmaceutical preparation was administered intravenously to ddY mice (male, 6 weeks old). The 50% lethal dosage LD50 of the acute toxicity was calculated by an ordinary method from the death rate up to 24 hours after administration.

In the case of `COc1ccc(N)cc1OC[C@@H](O)CN1CCC(c2ccc(Oc3ccccc3)cc2)CC1` [Compound 41, (2S)-1-[(5-amino-2-methoxy)phenoxy]-3-[4-(4-phenoxyphenyl)piperidin-1-yl]-2-propanol], the “Anti-veratrizine effect (inhibiting rate %)” value (Sodium channel) is reported as 22.1%, the IC50 (T-type Ca^2+ channel) is reported as 4 µM and the IC50 (lipid peroxidation) is reported as 0.87 µM. It also gave an IC50 (Dopamine D2 receptor) of 11 µM, an inhibition in vivo at 10 mg/kg (DBA/2N type mice) of 60% and an LD50 at 24 h (Acute toxicity test) of 36.7 mg/kg.
